Structures can show the parent of a compound that is named as a salt.

For the compound `NCCCCCNc1nc(-c2ccncc2)cc(=O)n1CCc1ccccc1` (as salt: hydrochloride) [Compound 43, 2-(5-Amino-pentylamino)-3-phenethyl-6-pyridin-4-yl-3H-pyrimidin-4-one], the melting point (usually the temperature of the solid-liquid transition) lay within 235 to 238 °C.
With `Cn1c(NCCCN2CCCCC2)nc(-c2ccncc2)cc1=O` [Compound 67, 3-Methyl-2-(3-piperidin-1-yl-propylamino)-6-pyridin-4-yl-3H-pyrimidin-4-one], the melting point was 162 to 163 °C.
Compound `Cn1c(NCCc2c[nH]c3ccc(OCc4ccccc4)cc23)nc(-c2ccncc2)cc1=O` [Compound 31, 2-[[2-(5-phenylmethoxy-1H-indol-3-yl)ethyl]amino]-3-methyl-6-pyridin-4-ylpyrimidin-4(3H)-one] returned a melting point of 168.4 to 168.6 °C.
For `CCCCCCCCCNc1nc(-c2ccncc2)cc(=O)n1C` [Compound 52, 3-Methyl-2-nonylamino-6-pyridin-4-yl-3H-pyrimidin-4-one], the melting point lay in the range of 113 to 115 °C.
Compound `CCCOCCCNc1nc(-c2ccncc2)cc(=O)n1C` [Compound 64, 3-Methyl-2-(3-propoxy-propylamino)-6-pyridin-4-yl-3H-pyrimidin-4-one] had a melting point of 107 to 109 °C.
As to `CN(CCCC1CCCCC1)c1nc(-c2ccncc2)cc(=O)n1C` (as salt: hydrochloride) [Compound 68, 2-[(3-Cyclohexyl-propyl)-methyl-amino]-3-methyl-6-pyridin-4-yl-3H-pyrimidin-4-one], the melting point was in the range of 188 to 191 °C.
The same measure for `CCCCCNc1nc(-c2ccncc2)cc(=O)n1C` [Compound 48, 3-Methyl-2-pentylamino-6-pyridin-4-yl-3H-pyrimidin-4-one]: 157 to 159 °C; for `CN(C)CCn1c(NCCCc2ccccc2)nc(-c2ccncc2)cc1=O` (as salt: hydrochloride): 212 to 215 °C; for `CC(C)CCNc1nc(-c2ccncc2)cc(=O)n1C` [Compound 55, 3-Methyl-2-(3-methyl-butylamino)-6-pyridin-4-yl-3H-pyrimidin-4-one]: 213 to 217 °C.
Under `Cn1c(NCCc2ccccc2Cl)nc(-c2ccncc2)cc1=O` [Compound 9, 2-[[2-(2-chlorophenyl)ethyl]amino]-3-methyl-6-pyridin-4-ylpyrimidin-4(3H)-one] stands 175.2 to 175.4 °C.
In turn, `COc1ccccc1CCNc1nc(-c2ccncc2)cc(=O)n1CCCN` (as salt: hydrochloride) [Compound 85, 3-(3-Amino-propyl)-2-[2-(2-methoxy-phenyl)-ethylamino]-6-pyridin-4-yl-3H-pyrimidin-4-one] had a melting point of 198 to 201 °C.
Compound `NCCCCCn1c(NCCCc2ccccc2)nc(-c2ccncc2)cc1=O` (as salt: hydrochloride) [Compound 79, 3-(5-Amino-pentyl)-2-(3-phenyl-propylamino)-6-pyridin-4-yl-3H-pyrimidin-4-one] showed a melting point of 123 to 126 °C.
`COc1ccc2[nH]cc(CCNc3nc(-c4ccncc4)cc(=O)n3C)c2c1` [Compound 30, 2-[[2-(5-methoxy-1H-indol-3-yl)ethyl]amino]-3-methyl-6-pyridin-4-ylpyrimidin-4(3H)-one] showed a melting point of 242.7 to 243 °C.
`COc1ccc(CCNc2nc(-c3ccncc3)cc(=O)n2C)cc1OC` [Compound 12, 2-[[2-(3,4-dimethoxyphenyl)ethyl]amino]-3-methyl-6-pyridin-4-ylpyrimidin-4(3H)-one] showed a melting point of 187 to 187.1 °C.
For `Cn1c(NCc2cccc(OCCCN)c2)nc(-c2ccncc2)cc1=O` (as salt: hydrochloride) [Compound 26, 2-[[[3-(3-aminopropoxy)phenyl]methyl]amino]-3-methyl-6-pyridin-4-ylpyrimidin-4(3H)-one], the melting point was in the range of 193 to 196 °C.
The same measure for `Cc1ccc(CCNc2nc(-c3ccncc3)cc(=O)n2C)cc1` [Compound 16, 2-[[2-(4-methylphenyl)ethyl]amino]-3-methyl-6-pyridin-4-ylpyrimidin-4(3H)-one]: 184.7 to 185 °C; for `Cn1c(NCCC23CC4CC(CC(C4)C2)C3)nc(-c2ccncc2)cc1=O` [Compound 70, 2-(2-Adamantan-1-yl-ethylamino)-3-methyl-6-pyridin-4-yl-3H-pyrimidin-4-one]: 107 to 111 °C.
In the case of `Cn1c(NCc2cccc(OCCCO)c2)nc(-c2ccncc2)cc1=O` [Compound 71, 2-[3-(3-Hydroxy-propoxy)-benzylamino]-3-methyl-6-pyridin-4-yl-3H-pyrimidin-4-one], the melting point is 98 to 101 °C.
`O=c1cc(-c2ccncc2)nc(NCCCc2ccccc2)n1Cc1ccccc1` [Compound 28, 2-[[3-(phenyl)propyl]amino]-3-phenylmethyl-6-pyridin-4-ylpyrimidin-4(3H)-one] came in with a melting point of 218 to 221 °C.
`Cc1cccc2c(CCNc3nc(-c4ccncc4)cc(=O)n3C)c[nH]c12` [Compound 32, 2-[[2-(7-methyl-1H-indol-3-yl)ethyl]amino]-3-methyl-6-pyridin-4-ylpyrimidin-4 (3H)-one] displayed a melting point of 217.2 to 217.3 °C.
With `CN(C)CCCOc1cccc(CNc2nc(-c3ccncc3)cc(=O)n2C)c1` [Compound 74, 2-[3-(3-Dimethylamino-propoxy)-benzylamino]-3-methyl-6-pyridin-4-yl-3H-pyrimidin-4-one], the melting point was 80 to 82 °C.
`Cn1c(NCCc2cccc(Cl)c2)nc(-c2ccncc2)cc1=O` [Compound 18, 2-[[2-(3-chlorophenyl)ethyl]amino]-3-methyl-6-pyridin-4-ylpyrimidin-4(3H)-one] yielded a melting point of 162.8 to 163 °C.
For `Cn1c(N(CCCN)CCCc2ccccc2)nc(-c2ccncc2)cc1=O` (as salt: hydrochloride) [Compound 77, 2-[(3-Amino-propyl)-(3-phenyl-propyl)-amino]-3-methyl-6-pyridin-4-yl-3H-pyrimidin-4-one], the melting point lay in the range of 185 to 189 °C.
The same measure for `NCCCCNc1nc(-c2ccncc2)cc(=O)n1CCc1ccccc1` (as salt: hydrochloride) [Compound 45, 2-(4-Amino-butylamino)-3-phenethyl-6-pyridin-4-yl-3H-pyrimidin-4-one]: 246 to 248 °C.
The same measure for `Cn1c(NCCc2ccc(OCc3ccccc3)cc2)nc(-c2ccncc2)cc1=O` [Compound 21, 2-[[2-(4-phenylmethoxyphenyl)ethyl]amino]-3-methyl-6-pyridin-4-ylpyrimidin-4(3H)-one]: 169.7 to 169.8 °C; for `O=c1cc(-c2ccncc2)nc(NCCCc2ccccc2)n1CCO` [Compound 86, 3-(2-Hydroxy-ethyl)-2-(3-phenyl-propylamino)-6-pyridin-4-yl-3H-pyrimidin-4-one]: 143 to 145 °C; for `CCCCCCCCCCNc1nc(-c2ccncc2)cc(=O)n1C` (as salt: hydrochloride) [Compound 53, 2-Decylamino-3-methyl-6-pyridin-4-yl-3H-pyrimidin-4-one]: 162 to 164 °C.
The compound `Cn1c(NCCc2c[nH]c3ccccc23)nc(-c2ccncc2)cc1=O` (as salt: oxalate) [Compound 29, 2-[[2-(1H-indol-3-yl)ethyl]amino]-3-methyl-6-pyridin-4-ylpyrimidin-4(3H)-one] registered a melting point of 217 to 218 °C.
As to `NCCCCCCNc1nc(-c2ccncc2)cc(=O)n1CCCc1ccccc1` (as salt: hydrochloride), the melting point is 142 to 143 °C.
`CCCOCCNc1nc(-c2ccncc2)cc(=O)n1C` [Compound 57, 3-Methyl-2-(2-propoxy-ethylamino)-6-pyridin-4-yl-3H-pyrimidin-4-one] displayed a melting point of 147 to 150 °C.
As for `Cn1c(NCCc2cccs2)nc(-c2ccncc2)cc1=O` [Compound 19, 2-[[2-(thiophen-2-yl)ethyl]amino]-3-methyl-6-pyridin-4-ylpyrimidin-4(3H)-one], the melting point lay in the range of 171.7 to 171.9 °C.
`Cn1c(NCCSc2ccccc2)nc(-c2ccncc2)cc1=O` [Compound 92, 3-Methyl-2-(2-phenylsulfanyl-ethylamino)-6-pyridin-4-yl-3H-pyrimidin-4-one] came in with a melting point of 162 to 168 °C.
`CCCCCCCCNc1nc(-c2ccncc2)cc(=O)n1C` showed a melting point of 114 to 116 °C.
For the compound `COc1ccc(OC)c(CCNc2nc(-c3ccncc3)cc(=O)n2C)c1` [Compound 13, 2-[[2-(2,5-dimethoxyphenyl)ethyl]amino]-3-methyl-6-pyridin-4-ylpyrimidin-4(3H)-one], the melting point was in the range of 180.9 to 181.3 °C.
`Cn1c(NCc2cccc(OCCC3CCNCC3)c2)nc(-c2ccncc2)cc1=O` (as salt: hydrochloride) [Compound 72, 3-methyl-2-[3-(2-piperidin-4-yl-ethoxy)-benzylamino]-6-pyridin-4-yl-3H-pyrimidin-4-one] gave a melting point of 225 to 232 °C.
Compound `Cn1c(NCCNc2ccccc2)nc(-c2ccncc2)cc1=O` [Compound 93, 3-Methyl-2-(2-phenylamino-ethylamino)-6-pyridin-4-yl-3H-pyrimidin-4-one] came in with a melting point of 102 to 105 °C.
The same measure for `Cn1c(NCCc2ccccc2F)nc(-c2ccncc2)cc1=O` [Compound 5, 2-[[2-(2-fluorophenyl)ethyl]amino]-3-methyl-6-pyridin-4-ylpyrimidin-4(3H)-one]: 184 to 187.2 °C.
With `Cn1c(NCCc2ccc(-c3ccccc3)cc2)nc(-c2ccncc2)cc1=O` [Compound 22, 2-[[2-(4-phenylphenyl)ethyl]amino]-3-methyl-6-pyridin-4-ylpyrimidin-4(3H)-one], the melting point fell in the range of 175.4 to 175.6 °C.
The compound `Cn1c(NCCc2ccc(O)cc2)nc(-c2ccncc2)cc1=O` [Compound 15, 2-[[2-(4-hydroxyphenyl)ethyl]amino]-3-methyl-6-pyridin-4-ylpyrimidin-4(3H)-one] gave a melting point of 257.4 to 257.9 °C.
In the case of `NCCCCCCn1c(NCCCc2ccccc2)nc(-c2ccncc2)cc1=O` (as salt: hydrochloride), the melting point lay in the range of 192 to 195 °C.
On to `Cn1c(NCCc2ccc(Cl)cc2)nc(-c2ccncc2)cc1=O` [Compound 14, 2-[[2-(4-chlorophenyl)ethyl]amino]-3-methyl-6-pyridin-4-ylpyrimidin-4(3H)-one], for which the melting point lay within 165.3 to 165.5 °C.

Source of the values: patent publication US7378413B2, “2-amino-3-(alkyl)-pyrimidone derivatives” (Sanofi Aventis, priority 2000, dated 2008).
